Here are results for six molecules from article PMC6753678, “Fueling Open Innovation for Malaria Transmission-Blocking Drugs: Hundreds of Molecules Targeting Early Parasite Mosquito Stages” (Frontiers in Microbiology, 2019).

Read-outs that look alike come from different tables or passages of the source.

Data set [1] deals with 3D7-strain P. falciparum asexual parasites. In words: P. falciparum asexual growth inhibition assay (Pf GIA). The settings on record: dose response confirmation; read-out: Pf asexual growth inhibition assays IC50. It counts as cell-based, Plasmodium falciparum. In short, it runs like this:
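0.25% parasitemia, 2% Hct, RPMI/HEPES/hypoxanthine/5% Albumax; compound dose response, 72 h, 37°C, 5% CO2, 5% O2, 90% N2. Freeze-thaw, then LDH assay, A650. % inhibition vs chloroquine (50 μM)/DMSO, mean of 3 independent runs.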

Data set [2] has as its system HepG2 cells. Put plainly: HepG2 cytotoxicity assay. Particulars: for Unified cytotox: HepG2 values of the three screens unified; for IC50: read-out: HepG2 cytotoxicity assay IC50, dose response confirmation. The procedure, abridged:
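Percent inhibition derived from fluorescent viability readout, normalised to DMSO (negative) and 50 μM doxorubicin (positive). Compound incubation lasted 48 h at 37°C, 5% CO2, with 2,500 HepG2 cells/well in MEM plus 10% FBS and 1% NEAA.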

The test system of data set [3] is P. berghei ookinete development. The settings on record: for Is compound selective in assay? Pb ODA active?: 1: YES, 0: NO; for % inhibition, Replicate A / % inhibition, Replicate B: primary screen at 1 μM.
The subject of data set [4] is P. falciparum female gametocytes. Also noted: method as in Miguel-Blanco et al 2017. The settings on record: ref Miguel-Blanco et al 2017; read-out: Pf FGAA IC50; cited from earlier work.
For data set [5], the system named is HepG2 cells. The settings on record: HepG2; ref Miguel-Blanco et al 2017; cited from earlier work.
Data set [6] deals with P. falciparum female gametocytes. Put plainly: P. falciparum female gametogenesis assay (Pf FGAA). Particulars: 1: YES; 0: NO.
Setting [7] is: read-out: Pb ODA IC50, this manuscript.
Setting [8] is: read-out: Pb Ookinete development assay IC50, dose response confirmation.

The IC50 is the point on the concentration scale where inhibition reaches its midpoint.

Consider `Cc1ccnc(NC(c2cccc(Cl)c2Cl)c2ccc3cccnc3c2O)c1` (stereo not shown) [TCMDC-123997], for which the IC50 in data set [1] was determined as 1.99 µM. In the data set with HepG2 cells [2], the “HepG2 cytoxicity (Pb ODA, this manuscript)” value was found to be 2.88 µM; the Unified cytotox was determined as 24.29 µM; the 50% inhibitory concentration (IC50) came out at 2.88 µM. Moreover, in data set [3], the “Is compound selective in assay? Pb ODA active?” value is listed as 0 (0: NO); the “% inhibition, Replicate A” value is given as 48.46%; the “% inhibition, Replicate B” value came to 53.18%. For the same molecule, in data set [3] (setting [7]), the IC50 is 3.5 µM. In data set [3] (setting [8]), the IC50 was 3.5 µM. Moreover, the IC50 in data set [4] is 1.91 µM. The “HepG2 cytoxicity (Pf FGAA screen)” value with HepG2 cells [5] is listed as 45.69 µM. The “Is compound selective in assay? Pf FGAA active?” value in data set [6] is reported as 1 (1: YES).

As to `Cc1ccc(-n2c(Sc3ncnc4sccc34)nnc2N2CCCC2)cc1` [TCMDC-125247], the IC50 in data set [1] is 0.275 µM; in the data set with HepG2 cells [2] it was 74.1 µM; in data set [3] (setting [7]) it was 0.22 µM; in data set [3] (setting [8]) it was 0.222 µM; in data set [4], 0.49 µM. For the same molecule, the “HepG2 cytoxicity (Pb ODA, this manuscript)” value in the data set with HepG2 cells [2] is reported as 74.13 µM. In addition, in the data set on HepG2 cells [2], the Unified cytotox is on record as 81.63 µM. Besides, in data set [3], the “Is compound selective in assay? Pb ODA active?” value is recorded as 1 (1: YES). In addition, in data set [3], the “% inhibition, Replicate A” value turned out to be 123.83%. Moreover, the “% inhibition, Replicate B” value in data set [3] is given as 128.92%. Also, the “HepG2 cytoxicity (Pf FGAA screen)” value in the data set on HepG2 cells [5] was 89.13 µM. Further, the “Is compound selective in assay? Pf FGAA active?” value in data set [6] is 1 (1: YES).

Regarding `O=C(Nc1nc(-c2ccccn2)cs1)c1ccc(S(=O)(=O)N2CCc3ccccc32)cc1` [TCMDC-125432], in data set [1], the IC50 worked out at 3.85 µM. Further, in the data set on HepG2 cells [2], the “HepG2 cytoxicity (Pb ODA, this manuscript)” value was 4.22 µM; the Unified cytotox turned out to be 16.72 µM; the IC50 came out at 4.22 µM. In addition, in data set [3], the “Is compound selective in assay? Pb ODA active?” value was 0 (0: NO); the “% inhibition, Replicate A” value is listed as 17.85%; the “% inhibition, Replicate B” value is reported as 54.79%. Moreover, the IC50 in data set [3] (setting [7]) turned out to be 2.4 µM. Also, the IC50 in data set [3] (setting [8]) worked out at 2.4 µM. In addition, the IC50 in data set [4] was 1.07 µM. The “HepG2 cytoxicity (Pf FGAA screen)” value in the data set on HepG2 cells [5] is recorded as 29.22 µM. In addition, the “Is compound selective in assay? Pf FGAA active?” value in data set [6] is given as 1 (1: YES).

Turning to `Oc1c(C(Nc2nc3ccccc3s2)c2ccccc2)ccc2cccnc12` (stereo not shown) [TCMDC-125565], the IC50 in data set [1] was 2.39 µM. Moreover, in the data set with HepG2 cells [2], the “HepG2 cytoxicity (Pb ODA, this manuscript)” value turned out to be 2.34 µM; the Unified cytotox is given as 2.34 µM; the IC50 amounted to 2.34 µM. Also, in data set [3], the “Is compound selective in assay? Pb ODA active?” value is given as 0 (0: NO); the “% inhibition, Replicate A” value was 27.85%; the “% inhibition, Replicate B” value came out at 50.32%. Further, the IC50 in data set [3] (setting [7]) is 4 µM. For the same molecule, the 50% inhibitory concentration (IC50) in data set [3] (setting [8]) was determined as 4 µM. Further, the IC50 in data set [4] was 3.03 µM. Further, the “Is compound selective in assay? Pf FGAA active?” value in data set [6] is recorded as 0 (0: NO).

As to `CCCC(N)C(=O)NC1CCN(c2c(F)c(N)c3c(=O)c(C(=O)O)cn4c3c2Oc2ccccc2-4)C1.Cl` (stereo not shown) [TCMDC-125701], the IC50 in data set [1] worked out at 0.056 µM. Moreover, in the data set with HepG2 cells [2], the “HepG2 cytoxicity (Pb ODA, this manuscript)” value is on record as 3.63 µM; the Unified cytotox amounted to 2.62 µM; the IC50 amounted to 3.63 µM. In data set [3], the “Is compound selective in assay? Pb ODA active?” value is reported as 0 (0: NO); the “% inhibition, Replicate A” value turned out to be 70.26%; the “% inhibition, Replicate B” value was found to be 78.60%. Besides, the IC50 in data set [3] (setting [8]) came to 0.9 µM. For the same molecule, in data set [4], the IC50 was 1.14 µM. Besides, the “HepG2 cytoxicity (Pf FGAA screen)” value in the data set with HepG2 cells [5] was 1.61 µM. For the same molecule, in data set [6], the “Is compound selective in assay? Pf FGAA active?” value is reported as 0 (0: NO).

With `COc1ccc2nc3cc(Cl)ccc3c(N)c2c1.Cl` [TCMDC-125835], the IC50 in data set [1] is 0.029 µM; with HepG2 cells [2], 6.17 µM; in data set [3] (setting [7]), 6.32 µM; in data set [3] (setting [8]), 6.32 µM; in data set [4], 0.67 µM. In the data set on HepG2 cells [2], the “HepG2 cytoxicity (Pb ODA, this manuscript)” value amounted to 6.17 µM. This molecule also registered a Unified cytotox with HepG2 cells [2] of 3.87 µM. The “Is compound selective in assay? Pb ODA active?” value in data set [3] is listed as 0 (0: NO). Moreover, the “% inhibition, Replicate A” value in data set [3] came to 74.62%. For the same molecule, the “% inhibition, Replicate B” value in data set [3] came to 77.49%. The “HepG2 cytoxicity (Pf FGAA screen)” value in the data set on HepG2 cells [5] was 1.57 µM. Also, the “Is compound selective in assay? Pf FGAA active?” value in data set [6] is reported as 0 (0: NO).
